Results taken from US10028992B2, “Methods of treating muscular dystrophy” (BOARD OF REGENTS OF THE NEVADA SYSTEM OF HIGHER EDUCATION …, priority 2012, dated 2018).
Where two headings read alike, the source gives them in different places.

Test system: α7 integrin promoter
Test: muscle cell-based assay: α7βgal+/− myoblasts/myotubes, LacZ reporter, β-galactosidase cleavage of FDG
Parameters: species or system mouse
Conditions: for AC50 / EC50: Mus musculus; for AC50: log of AC50, given with negative sign, unit of AC50 not given, read-out: Fit Log AC50 (converted); for EC50: read-out: Fit LogAC50 (converted)
Experimental: An α7 integrin null mouse was produced in which exon 1 of the gene encoding the α7 integrin was replaced by the LacZ reporter. In these mice, all the transcriptional regulatory elements of the α7 integrin promoter were retained, allowing β-galactosidase to report expression of 7 integrin. A primary myoblast cell line (designated α7βgal^+/−) isolated from 10 day old α7^+/− pups were analyzed for the ability of β-galactosidase to report α7 integrin expression. α7βgal^+/− myoblasts were differentiated and subjected to X-gal staining and western analysis (FIGS. 1A and 1B).
The activity of the α7 integrin promoter was measured by β-galactosidase cleavage of the non-fluorescent compound fluorescein di-β-D-galactopyranoside (FDG) to fluorescein. This assay was used to screen compound libraries to identify molecules that up-regulate α7 integrin expression in muscle.
Also evaluated was the effect of various isoforms of laminin and the ligand for α7β1 integrin on integrin expression. Positive hits were subjected to dose-response analysis, western analysis and a myostatin counterscreen (a negative regulator of muscle growth).

[1] = Table 12, fitted activity at zero concentration
[2] = Table 12 Compound data, concentration-response curve fit
[3] = given as log AC50 (negative values)
[4] = curve class number, key not given
[5] = curve fit, activity at zero concentration

Row | Compound | EC50 [3] [µM] | Score (Table 12 compound data) | Fit Curve Class [4] | Fit HillSlope (curve fit) | Fit Zero Activity [%] [5] [%] | also measured
1 | O=C(COC(=O)Cn1cnc2ccccc21)Nc1cccc([N+](=O)[O-])c1 [Compound 119] | – | – | – | – | – | AC50 (Table 12): 11.2 µM; Fit HillSlope (Table 12, curve fit): 4.9549; Fit Zero Activity [%] [1]: −16.0213%; Fit Curve Class (Table 12, key not given): 2.1; Score [2]: 43
2 | Cc1ccc(CNc2ncnc(N)c2[N+](=O)[O-])cc1 [Compound 120] | – | – | – | – | – | AC50 (Table 12): 10 µM; Fit HillSlope (Table 12, curve fit): 0.8; Fit Zero Activity [%] [1]: 11.933%; Fit Curve Class (Table 12, key not given): 2.1; Score [2]: 43
3 | CN(C)/C=N/c1nccc(-c2cccs2)n1 [Compound 121] | – | – | – | – | – | AC50 (Table 12): 8.91 µM; Fit HillSlope (Table 12, curve fit): 1.8851; Fit Zero Activity [%] [1]: 5.7133%; Fit Curve Class (Table 12, key not given): 2.1; Score [2]: 43
4 | Cc1cc(N2CCOCC2)nc2ccc(N/C(S)=N/Cc3ccc4c(c3)OCO4)cc12 [Compound 122] | – | – | – | – | – | AC50 (Table 12): 10 µM; Fit HillSlope (Table 12, curve fit): 1.2475; Fit Zero Activity [%] [1]: 0.5248%; Fit Curve Class (Table 12, key not given): 2.1; Score [2]: 43
5 | COCCN1C=C(C(=O)OC)C(c2ccccc2Cl)C(C(=O)OC)=C1 [Compound 123] | 8.91 | 43 | 2.1 | 1.3443 | 3.9836 | –
6 | O=C(NCCCn1ccnc1)/C(=C/c1cccs1)NC(=O)c1ccco1 [Compound 124] | 8.91 | 43 | 2.1 | 1.2475 | −20.4393 | –
7 | N=C(NOC(=O)COc1cc(Cl)c(Cl)cc1Cl)c1ccncc1 [Compound 125] | 11.2 | 43 | 2.1 | 1.1705 | −2.6906 | –
8 | Cc1ccc(-c2csc(Nc3ccc(C(=O)O)cc3)[n+]2Cc2ccccc2)cc1.[Br-] [Compound 126] | 8.91 | 43 | 2.1 | 1 | 0.673 | –
9 | Cc1cc(-c2ccccc2)n2nc(N)nc2n1 [Compound 127] | 12.6 | 43 | 2.1 | 4.5045 | −18.9102 | –
10 | O=C(N/N=C/c1cn[nH]c1-c1ccc(F)cc1)c1ccncc1 [Compound 128] | 14.1 | 43 | 2.1 | 4.5045 | 14.6735 | –
11 | CC(/C=C(\O)c1ccccc1)=N\c1ccc(Br)c(Cl)c1 [Compound 130] | 11.2 | 43 | 2.1 | 4.5045 | 7.8122 | –
12 | Cc1ccc(NC(=O)COc2ccccc2CNC(C)(C)CC(C)(C)C)cc1 [Compound 131] | 14.1 | 43 | 2.1 | 4.9549 | 8.7591 | –
13 | Cc1nc2c([nH]1)OC(N)=C(C#N)C21CCN(Cc2ccccc2)CC1 [Compound 132] | – | – | – | – | – | Fit Curve Class: 2.1; Fit HillSlope: 4.9549; Fit Zero Activity [%]: 12.8108%; Score: 43; EC50: 12.6 µM
14 | O=C(CSc1nnc(C2CC2)n1C1CC1)c1cccs1 [Compound 133] | 10 | 42 | 2.1 | 2.7202 | −27.5656 | –
15 | CSc1ncccc1C(=O)OCC(=O)c1cc(C)n(C)c1C [Compound 134] | 10 | 42 | 2.1 | 4.4495 | −22.5632 | –
16 | CCc1c(C2(O)CCCCC2)[nH]c2ncccc12 [Compound 135] | 10 | 42 | 2.1 | 4.9549 | −29.3022 | –
17 | O=C(Nc1ccc(S(=O)(=O)Nc2nccs2)cc1)c1ccccc1OC(F)F [Compound 137] | 10 | 42 | 2.1 | 4.9549 | −19.2861 | –
18 | O=C1CCc2cc(S(=O)(=O)Nc3ccc(C(F)(F)F)cc3)cc3c2N1CC3 [Compound 138] | 11.2 | 42 | 2.1 | 1.3437 | −27.3652 | –
19 | COc1ccccc1C(=O)NCC(=O)/N=N/c1c(O)n(C(C)C)c2ccccc12 [Compound 139] | 11.2 | 42 | 2.1 | 4.5045 | 14.712 | –
